Test results: ChEMBL document CHEMBL4138123, “Design, synthesis and biological evaluation of novel pyrazolochalcones as potential modulators of PI3K/Akt/mTOR pathway and inducers of apoptosis in breast cancer cells” (Eur J Med Chem, 2017)

How the values were obtained:
Type in all cases: functional
[1] = system: ACHN; experiment: Cytotoxicity against human ACHN cells assessed as growth inhibition after 48 hrs by sulforhodamine B assay
[2] = system: M14; experiment: Cytotoxicity against human M14 cells assessed as cell growth at 0.01 uM after 48 hrs by sulforhodamine B assay relative to control; settings: M14, 48 h, read-out: Activity
[3] = system: COLO 205; experiment: Cytotoxicity against human COLO205 cells assessed as cell growth at 100 uM after 48 hrs by sulforhodamine B assay relative to control; settings: COLO 205, 48 h, read-out: Activity
[4] = system: UACC-62; experiment: Cytotoxicity against human UACC62 cells assessed as cell growth at 0.01 uM after 48 hrs by sulforhodamine B assay relative to control; settings: UACC-62, 48 h, read-out: Activity
[5] = system: TK-10; experiment: Cytotoxicity against human TK10 cells assessed as cell growth at 100 uM after 48 hrs by sulforhodamine B assay relative to control; settings: TK-10, 48 h, read-out: Activity
[6] = system: OVCAR-4; experiment: Cytotoxicity against human OVCAR4 cells assessed as cell growth at 1 uM after 48 hrs by sulforhodamine B assay relative to control; settings: OVCAR-4, 48 h, read-out: Activity
[7] = system: SF-539; experiment: Cytotoxicity against human SF539 cells assessed as cell growth at 0.01 uM after 48 hrs by sulforhodamine B assay relative to control; settings: SF-539, 48 h, read-out: Activity
[8] = system: COLO 205; experiment: Cytotoxicity against human COLO205 cells assessed as cell growth at 0.01 uM after 48 hrs by sulforhodamine B assay relative to control; settings: COLO 205, 48 h, read-out: Activity
[9] = system: 786-0; experiment: Cytotoxicity against human 786-0 cells assessed as cell growth at 0.01 uM after 48 hrs by sulforhodamine B assay relative to control; settings: 786-0, 48 h, read-out: Activity
[10] = system: MCF7; experiment: Cytotoxicity against human MCF7 cells assessed as cell growth at 0.1 uM after 48 hrs by sulforhodamine B assay relative to control; settings: MCF7, 48 h, read-out: Activity
[11] = system: SR; experiment: Cytotoxicity against human SR cells assessed as cell growth at 10 uM after 48 hrs by sulforhodamine B assay relative to control; settings: read-out: Activity
[12] = system: SK-MEL-28; experiment: Cytotoxicity against human SK-MEL-28 cells assessed as cell growth at 0.1 uM after 48 hrs by sulforhodamine B assay relative to control; settings: SK-MEL-28, 48 h, read-out: Activity
[13] = system: KM12; experiment: Cytotoxicity against human KM12 cells assessed as cell growth at 0.1 uM after 48 hrs by sulforhodamine B assay relative to control; settings: KM12, 48 h, read-out: Activity
[14] = system: MOLT-4; experiment: Cytotoxicity against human MOLT4 cells assessed as cell growth at 10 uM after 48 hrs by sulforhodamine B assay relative to control; settings: MOLT-4, 48 h, read-out: Activity
[15] = system: IGROV-1; experiment: Cytotoxicity against human IGROV1 cells assessed as growth inhibition after 48 hrs by sulforhodamine B assay; settings: IGROV-1, 48 h
[16] = system: HCC 2998; experiment: Cytotoxicity against human HCC2998 cells assessed as cell growth at 10 uM after 48 hrs by sulforhodamine B assay relative to control; settings: HCC 2998, 48 h, read-out: Activity
[17] = system: HT-29; experiment: Cytotoxicity against human HT-29 cells assessed as cell growth at 0.1 uM after 48 hrs by sulforhodamine B assay relative to control; settings: HT-29, 48 h, read-out: Activity
[18] = system: SK-MEL-5; experiment: Cytotoxicity against human SK-MEL-5 cells assessed as cell growth at 0.01 uM after 48 hrs by sulforhodamine B assay relative to control; settings: SK-MEL-5, 48 h, read-out: Activity
[19] = system: PC-3; experiment: Cytotoxicity against human PC3 cells assessed as cell growth at 0.01 uM after 48 hrs by sulforhodamine B assay relative to control; settings: PC-3, 48 h, read-out: Activity
[20] = system: OVCAR-8; experiment: Cytotoxicity against human OVCAR8 cells assessed as cell growth at 10 uM after 48 hrs by sulforhodamine B assay relative to control; settings: OVCAR-8, 48 h, read-out: Activity
[21] = system: TK-10; experiment: Cytotoxicity against human TK10 cells assessed as cell growth at 0.1 uM after 48 hrs by sulforhodamine B assay relative to control; settings: TK-10, 48 h, read-out: Activity
[22] = system: ACHN; experiment: Cytotoxicity against human ACHN cells assessed as cell growth at 1 uM after 48 hrs by sulforhodamine B assay relative to control; settings: read-out: Activity
[23] = system: OVCAR-3; experiment: Cytotoxicity against human OVCAR3 cells assessed as cell growth at 100 uM after 48 hrs by sulforhodamine B assay relative to control; settings: OVCAR-3, 48 h, read-out: Activity
[24] = system: A549; experiment: Cytotoxicity against human A549/ATCC cells assessed as cell growth at 1 uM after 48 hrs by sulforhodamine B assay relative to control; settings: A549, 48 h, read-out: Activity
[25] = system: Hs-578T; experiment: Cytotoxicity against human Hs 578T cells assessed as cell growth at 0.01 uM after 48 hrs by sulforhodamine B assay relative to control; settings: read-out: Activity
[26] = system: 786-0; experiment: Cytotoxicity against human 786-0 cells assessed as cell growth at 100 uM after 48 hrs by sulforhodamine B assay relative to control; settings: 786-0, 48 h, read-out: Activity
[27] = system: SK-MEL-28; experiment: Cytotoxicity against human SK-MEL-28 cells assessed as growth inhibition after 48 hrs by sulforhodamine B assay; settings: SK-MEL-28, 48 h
[28] = system: OVCAR-5; experiment: Cytotoxicity against human OVCAR5 cells assessed as cell growth at 10 uM after 48 hrs by sulforhodamine B assay relative to control; settings: OVCAR-5, 48 h, read-out: Activity
[29] = system: SK-MEL-5; experiment: Cytotoxicity against human SK-MEL-5 cells assessed as cell growth at 0.1 uM after 48 hrs by sulforhodamine B assay relative to control; settings: SK-MEL-5, 48 h, read-out: Activity
[30] = system: MOLT-4; experiment: Cytotoxicity against human MOLT4 cells assessed as cell growth at 0.01 uM after 48 hrs by sulforhodamine B assay relative to control; settings: MOLT-4, 48 h, read-out: Activity
[31] = system: OVCAR-3; experiment: Cytotoxicity against human OVCAR3 cells assessed as cell growth at 10 uM after 48 hrs by sulforhodamine B assay relative to control; settings: OVCAR-3, 48 h, read-out: Activity
[32] = system: Hs-578T; experiment: Cytotoxicity against human Hs 578T cells assessed as cell growth at 10 uM after 48 hrs by sulforhodamine B assay relative to control; settings: read-out: Activity
[33] = system: T47D; experiment: Cytotoxicity against human T47D cells assessed as cell growth at 100 uM after 48 hrs by sulforhodamine B assay relative to control; settings: read-out: Activity
[34] = system: M14; experiment: Cytotoxicity against human M14 cells assessed as cell growth at 0.1 uM after 48 hrs by sulforhodamine B assay relative to control; settings: M14, 48 h, read-out: Activity
[35] = system: OVCAR-5; experiment: Cytotoxicity against human OVCAR5 cells assessed as growth inhibition after 48 hrs by sulforhodamine B assay; settings: OVCAR-5, 48 h
[36] = system: OVCAR-4; experiment: Cytotoxicity against human OVCAR4 cells assessed as cell growth at 0.1 uM after 48 hrs by sulforhodamine B assay relative to control; settings: OVCAR-4, 48 h, read-out: Activity

`COc1cc(-c2cc(/C=C/C(=O)c3ccc(F)c(F)c3)[nH]n2)cc(OC)c1OC` showed an LC50 [1] of over 100 µM, a TGI [1] of over 100 µM and a growth at 0.01 µM [2] of 94%. The growth at 100 µM [3] was -99%, the growth at 0.01 µM [4] was 97% and the growth at 100 µM [5] was -37%. It also gave a growth at 1 µM [6] of 67%, a growth at 0.01 µM [7] of 100% and a growth at 0.01 µM [8] of 101%. The growth at 0.01 µM [9] was 95%, the growth at 0.1 µM [10] was 98% and the growth at 10 µM [11] was 11%. It also gave a growth at 0.1 µM [12] of 102%, a growth at 0.1 µM [13] of 92% and a growth at 10 µM [14] of -4%. It also gave an LC50 [15] of over 100 µM, a TGI [15] of 87 µM and a growth at 10 µM [16] of 13%. For the same compound, the growth at 0.1 µM [17] was 102%, the growth at 0.01 µM [18] was 98% and the growth at 0.01 µM [19] was 98%. It also gave a growth at 10 µM [20] of 4%, a growth at 0.1 µM [21] of 88% and a growth at 1 µM [22] of 100%. It also gave a growth at 100 µM [23] of -64%, a growth at 1 µM [24] of 82% and a growth at 0.01 µM [25] of 98%. The growth at 100 µM [26] was -47%, the LC50 [27] was over 100 µM and the TGI [27] was 28.2 µM. For the same compound, the growth at 10 µM [28] was 27%, the growth at 0.1 µM [29] was 96% and the growth at 0.01 µM [30] was 108%. It also gave a growth at 10 µM [31] of -24%, a growth at 10 µM [32] of 21% and a growth at 100 µM [33] of -11%. It also gave a growth at 0.1 µM [34] of 91%, an LC50 [35] of over 100 µM and a TGI [35] of 33.8 µM. The growth at 0.1 µM [36] was 111%.
